According to patent publication US20110065663A1, “ANTI-CANCER COMBINATION THERAPY” (Katholieke Universiteit Leuven, K.U. Leuven R&D, priority 2008, published 2011):
Like-named read-outs stand apart in the source and are kept apart here.

What was measured:
MCF-7/HYOR cells = assay: Tumor cell proliferation assay, M. hyorhinis-infected MCF-7 cells; format: cell-based, human; conditions: for Ratio (1)/(2) MCF-7/HYOR: IC50 in the absence of TPi to IC50 in the presence of TPi
Description: Mycoplasma hyorhinis (ATCC 17981) was obtained from the American Type Culture Collection (ATCC, Manassas, Va.). The freeze-dried bacteria were reconstituted by adding 1 ml of DMEM. […] The co-culture of MCF-7 cells and M. hyorhinis was maintained under the same conditions as the uninfected MCF-7 cells. […] The cells were incubated for another 4 days, trypsinized and counted by a Coulter counter (Analis, Suarlée, Belgium).

MCF-7/HYOR cell cultures = assay: Nucleoside metabolism experiments, distribution of drug-derived radiolabel in MCF-7/HYOR cell cultures; format: cell-based, human; conditions: MCF-7/HYOR; for % of drug-derived radiolabel, In medium, Base / % of drug-derived radiolabel, In medium, Nucleoside / % of drug-derived radiolabel, In the cytosol of the cells, 5′-diphosphate / % of drug-derived radiolabel, In the cytosol of the cells, 5′-monophosphate / % of drug-derived radiolabel, In the cytosol of the cells, 5′-triphosphate / % of drug-derived radiolabel, In the cytosol of the cells, Nucleoside/nucleobase / % of drug-derived radiolabel, Incorporatio into DNA/RNA: 1 μCi, 16 h; for Increase of 5′-monophosphate levels in the presence of TPi: with versus without TPi
[1] = Conversion of nucleosides in the medium of uninfected MCF-7 cells; format: biochemical, human; conditions: even after 24 hours of incubation; data not shown
Description: The TP activity of M. hyorhinis and the conversion of dThd, FdUrd, 5′DFUR and TFT to thymine, 5FU, 5FU or TF-thymine respectively were measured by high-pressure liquid chromatography (HPLC) analysis. MCF-7 and MCF-7/HYOR cells were seeded at a density of 20,000 cells/cm^2 in DMEM with 10% FBS. Four days later, the medium was collected and cleared by centrifugation at 1,400 rpm. For some experiments, the medium of MCF-7/HYOR cells was filtered using a 0.1 μm micro filter (Acrodisc syringe filter, PALL Corporation, East Hills, N.Y.) to remove the mycoplasmas from the medium. 600 μl of the medium was incubated with 200 μM of substrate (dThd, 5′DFUR, TFT or FdUrd) at 37° C. in the presence or absence of 10 μM TPi. […] Next, the samples were rapidly cooled on ice, exposed for 20 min to 200 μl ice-cold methanol and cleared by centrifugation at 15,000 rpm for 15 minutes. As a positive control, an enzyme activity assay with E. coli TP (Sigma) was performed. For this reaction, 0.025 U of TP were incubated with 200 μM of substrate in TP-buffer (10 mM Tris-HCl, pH 7.6, 1 mM EDTA, 2 mM potassium phosphate and 150 mM NaCl) in a total volume of 600 μl. Aliquots of 100 μl were withdrawn from the reaction mixture at several time points and treated as described above. The nucleosides were separated from their nucleobases on a reversed-phase RP-8 column (Merck, Darmstadt, Germany) and quantified by HPLC analysis (Aliance 2690, Waters, Milford, Mass.). The separation was performed by a linear gradient from 100% buffer B (50 mM NaH2PO4 and 5 mM heptane sulfonic acid, pH 3.2), to 20% buffer B and 80% acetonitrile. […] UV-based detection of all nucleosides was performed at 267 nm.

Row | SMILES | Ratio (1)/(2) MCF-7/HYOR (MCF-7/HYOR cells) | IC50 (MCF-7/HYOR cells; M. hyorhinis-infected MCF-7, no TPi, no plasmocin, read-out: IC50 MCF-7/HYOR As such) [nM] | IC50 (MCF-7/HYOR cells; M. hyorhinis-infected MCF-7, with 10 μM TPi, read-out: IC50 MCF-7/HYOR +TPi (10 μM)) [nM] | IC50 (MCF-7/HYOR cells; plasmocin 25 μg/ml, 1 day pretreatment, read-out: IC50 MCF-7/HYOR +plasmocin (25 μg/ml) 1 day prior to addition of test compounds) [nM] | IC50 (MCF-7/HYOR cells; plasmocin 25 μg/ml, 3 days pretreatment, read-out: IC50 MCF-7/HYOR +plasmocin (25 μg/ml) 3 days prior to addition of test compounds) [nM] | % of drug-derived radiolabel, In medium, Base (MCF-7/HYOR cell cultures) [%] | % of drug-derived radiolabel, In medium, Nucleoside (MCF-7/HYOR cell cultures) [%] | % of drug-derived radiolabel, In the cytosol of the cells, 5′-diphosphate (MCF-7/HYOR cell cultures) [%] | % of drug-derived radiolabel, In the cytosol of the cells, 5′-monophosphate (MCF-7/HYOR cell cultures) [%] | % of drug-derived radiolabel, In the cytosol of the cells, 5′-triphosphate (MCF-7/HYOR cell cultures) [%] | % of drug-derived radiolabel, In the cytosol of the cells, Nucleoside/nucleobase (MCF-7/HYOR cell cultures) [%] | % of drug-derived radiolabel, Incorporatio into DNA/RNA (MCF-7/HYOR cell cultures) [%] | Share incorporated into the nucleic acids in the presence of TPi (MCF-7/HYOR cell cultures) | Increase of 5′-monophosphate levels in the presence of TPi (MCF-7/HYOR cell cultures) [fold] | Conversion in the medium of uninfected MCF-7 cells [1] | IC50 (MCF-7/HYOR cells; Homo sapiens, MCF7, read-out: IC50 MCF-7/HYOR +TPi (10 μM)) [nM] | IC50 (MCF-7/HYOR cells; Homo sapiens, MCF7, read-out: IC50 MCF-7/HYOR As such) [nM] | IC50 (MCF-7/HYOR cells; Homo sapiens, MCF7, plasmocin 25 μg/ml, 1 day pretreatment, read-out: IC50 MCF-7/HYOR +plasmocin (25 μg/ml) 1 day prior to addition of test compounds) [nM] | IC50 (MCF-7/HYOR cells; Homo sapiens, MCF7, plasmocin 25 μg/ml, 3 days pretreatment, read-out: IC50 MCF-7/HYOR +plasmocin (25 μg/ml) 3 days prior to addition of test compounds) [nM]
1 | O=c1[nH]c(=O)n([C@H]2C[C@H](O)[C@@H](CO)O2)cc1C(F)(F)F [TFT, 5-trifluorothymidine] | 33 | 6000 ± 3190 | 180 ± 70 | 450 ± 90 | 190 ± 60 | 56.7 | 23.3 | 0.6 | 6.1 | 0.6 | 11.0 | 1.8 | 66% | 2.7 | no conversion | – | – | – | –
2 | O=c1[nH]c(=O)n([C@H]2C[C@H](O)[C@@H](CO)O2)cc1F [FdUrd, 5-fluoro-2′-deoxyuridine] | 140 | – | – | – | – | 49.5 | 33.2 | 0.9 | 3.5 | 0.3 | 11.6 | 1.0 | almost no | 18 | no conversion | 3 ± 1 | 420 ± 180 | 18 ± 2.2 | 3 ± 1
